Source: patent US7405041B2, “Methods for regulating transcription by targeting quadruplex DNA” (Arizona Board of Regents on behalf of the University of …, priority 2002, dated 2008)

Experiments:
GAPDH RNA = experiment: Real-time reverse-transcription PCR gene expression in Colo-205 cells, GAPDH; type: cell-based; details: minimally cytotoxic doses
Method: (§1) Cells were treated with telomestatin (interacts with the putative tetrad:heptad in HER-2/neu) and TmPyP4 (negative control) at various concentrations and times. Cytotoxicity studies using MTS were performed to determine a non-toxic or minimally toxic dose and duration of treatment. Cells were harvested after treatment for RNA extraction, and “target” versus “non-target” gene expression is measured by real-time reverse-transcription PCR according to established methods.
(§2) Target genes included two known tetrad/heptad (T:H) forming genes, HER-2/neu and c-MYB. c-MYC was analyzed as a positive control, having a known chair quadruplex forming regulatory unit in the nuclease hypersensitive element of the P1 promoter. […]
(§3) A panel of cell lines including SK-BR-3 breast cancer, BT-474 breast cancer, MCF-7 breast cancer, Colo-205 colon cancer, and HeLa cervical cancer were treated with the quadruplex interactive compound TmPyP4 to assess for the cytotoxicity of this agent against a panel of cell lines with various levels of expression of HER-2/neu, c-MYB, and c-MYC. At minimally cytotoxic doses, Colo-205 cells were analyzed for gene expression after treatment with TmPyP4 and using real-time reverse-transcription PCR.

HER-2/neu RNA = experiment: Real-time reverse-transcription PCR gene expression in Colo-205 cells, HER-2/neu; type: cell-based; details: minimally cytotoxic doses
Method: as §1, §2, §3

c-MYB RNA = experiment: Real-time reverse-transcription PCR gene expression in Colo-205 cells, c-MYB; type: cell-based; details: minimally cytotoxic doses
Method: as §1, §2, §3

c-MYC RNA = experiment: Real-time reverse-transcription PCR gene expression in Colo-205 cells, c-MYC; type: cell-based; details: minimally cytotoxic doses
Method: as §1, §2, §3

HER-2/neu quadruplex = experiment: DNA polymerase arrest assay, HER-2/neu promoter template; type: biochemical; details: temperature gradient of 37° C. to 57° C., in the presence of potassium
Excerpt: (§4) A polymerase arrest assay is useful for determining whether transcription is modulated by a candidate molecule and/or a nucleic acid binding protein. Such an assay includes a template nucleic acid, which often comprises a quadruplex forming sequence, and a primer nucleic acid which hybridizes to the template nucleic acid […] of the quadruplex-forming sequence. The primer is extended by a polymerase (e.g., Taq polymerase), which advances from the primer along the template nucleic acid. In this assay, a quadruplex structure can block or arrest the advance of the enzyme, leading to shorter transcription fragments. Also, the arrest assay may be conducted at a variety of temperatures, including 45° C. and 60° C., and at a variety of ion concentrations. An example of the Taq polymerase stop assay is described in Han, et al., Nucl. Acids Res. 27:537-542 (1999), which is a modification of that used by Weitzmann, et al., J. Biol. Chem. 271, 20958-20964 (1996). Briefly, a reaction mixture of template DNA (50 nM), Tris∘HCl (50 mM), MgCl2 (10 mM), DTT (0.5 mM), EDTA (0.1 mM), BSA (60 ng), and 5′-end-labeled quadruplex nucleic acid (˜18 nM) is heated to 90° C. for 5 minutes and allowed to cool to ambient temperature over 30 minutes. Taq Polymerase (1 μl) is added to the reaction mixture, and the reaction is maintained at a constant temperature for 30 minutes. […]

[1] = test system: c-MYB nucleic acid (heptad:tetrad quadruplex); experiment: DNA polymerase arrest assay, c-MYB nucleic acid; type: biochemical; details: temperature gradient of 37° C. to 57° C., in the presence of potassium
Excerpt: as §4

B-actin RNA = experiment: Real-time reverse-transcription PCR gene expression in Colo-205 cells, B-actin; type: cell-based; details: minimally cytotoxic doses
Method: as §1, §2, §3

quadruplex DNA = details: stated as reason for use as negative control; cited from earlier work

SMILES	GAPDH RNA level (GAPDH RNA)	HER-2/neu RNA level (HER-2/neu RNA)	c-MYB RNA level (c-MYB RNA)	c-MYC RNA level (c-MYC RNA)	interaction with and stabilization of the HER-2/neu quadruplex (HER-2/neu quadruplex)	interaction with and stabilization of the c-MYB nucleic acid [1]	B-actin RNA level (B-actin RNA)	interaction with quadruplex DNA (quadruplex DNA)
C[n+]1ccc(-c2c3nc(c(-c4cc[n+](C)cc4)c4ccc([nH]4)c(-c4cc[n+](C)cc4)c4ccc([nH]4)c(-c4cc[n+](C)cc4)c4nc2C=C4)C=C3)cc1 [TMPyP4]	not a reduction	not a reduction	reduction	reduction	no apparent change in the stability of the HER-2/neu quadruplex	interacted with and stabilized the c-MYB nucleic acid	not a reduction	
C[n+]1ccccc1-c1c2nc(c(-c3cccc[n+]3C)c3ccc([nH]3)c(-c3cccc[n+]3C)c3ccc([nH]3)c(-c3cccc[n+]3C)c3nc1C=C3)C=C2 [TmPyP2]								interacts only weakly with quadruplex DNA
